In patent US8163793B2, “Proline derivatives” (Hoffman-La Roche Inc., priority 2009, dated 2012):

Columns and labels:
Cathepsin S = Cathepsin S (UniProt P25774); assay: Cathepsin enzyme inhibition assay (fluorogenic peptide substrate Z-Val-Val-Arg-AMC), Cathepsin S; type: biochemical, human and mouse; conditions: enzyme 1 nM, substrate 20 μM, pH 6.5; read-out: CatS IC50
Procedure: (§1) Cathepsin Enzyme Inhibition Assay
(§2) Enzyme activity is measured by observing the increase in fluorescence intensity caused by cleavage of a peptide substrate containing a fluorophore whose emission is quenched in the intact peptide.
(§3) Assay buffer: 100 mM potassium phosphate pH 6.5, EDTA-Na 5 mM, Triton X-100 0.001%, DDT 5 mM.
(§4) Enzymes (all at 1 nM): human and mouse Cathepsin S, Cat K, Cat B, Cat L Substrate (20 μM): Z-Val-Val-Arg-AMC, except for Cat K which uses Z-Leu-Arg-AMC (both from Bachem).
(§5) AMC=7-Amino-4-Methyl-Coumarin.
Enzyme is added to the substance dilutions in 96-well microtitre plates and the reaction is started with substrate. […] IC50 are calculated by standard methods. The results are expressed in μM in the following table.

Cat L = Cat L (UniProt P07711); assay: Cathepsin enzyme inhibition assay (fluorogenic peptide substrate Z-Val-Val-Arg-AMC), Cathepsin L; type: biochemical, human and mouse; conditions: enzyme 1 nM, substrate 20 μM, pH 6.5; read-out: CatL IC50
Procedure: as §1, §2, §3, §4, §5
Excitation 360 nm, Emission 465 nm.
Enzyme is added to the substance dilutions in 96-well microtitre plates and the reaction is started with substrate. Fluorescence emission is measured over 20 minutes, during which time a linear increase is observed in the absence of inhibitor. IC50 are calculated by standard methods. The results are expressed in μM in the following table.

Row | SMILES | IC50 (Cathepsin S) | IC50 (Cat L)
1 | Cc1cc(N2C[C@H](S(=O)(=O)c3ccccc3C(F)(F)F)C[C@H]2C(=O)NC2(C#N)CC2)n(C(C)(C)C)n1 [Example 339, (2S,4R)-1-(2-tert-Butyl-5-methyl-2H-pyrazol-3-yl)-4-(2-trifluoromethyl-benzenesulfonyl)-pyrrolidine-2-carboxylic acid (1-cyano-cyclopropyl)-amide] | 62.5 nM | ≥ 25000 nM
2 | N#CC1(NC(=O)[C@@H]2C[C@@H](S(=O)(=O)c3ccc(OCC(F)(F)F)cc3Cl)CN2C(=O)C2(c3ccc(Cl)cc3)CC2)CC1 [Example 178, (2S,4R)-1-[1-(4-Chloro-phenyl)-cyclopropanecarbonyl]-4-[2-chloro-4-(2,2,2-trifluoro-ethoxy)-benzenesulfonyl]-pyrrolidine-2-carboxylic acid (1-cyano-cyclopropyl)-amide] | 0.16 nM | 36 nM
3 | N#CC1(NC(=O)[C@@H]2C[C@@H](S(=O)(=O)c3ccccc3Cl)CN2S(=O)(=O)c2ccc(Cl)cc2)CC1 [Example 315, (2S,4R)-4-(2-Chloro-benzenesulfonyl)-1-(4-chloro-benzenesulfonyl)-pyrrolidine-2-carboxylic Acid (1-cyano-cyclopropyl)-amide] | 0.39 nM | 2500 nM
4 | N#CC1(NC(=O)[C@@H]2C[C@@H](S(=O)(=O)c3ccccc3)CN2C(=O)C2(c3ccc(Cl)cc3)CC2)CC1 [Example 457, (2S,4R)-1-(1-(4-chlorophenyl)cyclopropanecarbonyl)-N-(1-cyanocyclopropyl)-4-(phenylsulfonyl)pyrrolidine-2-carboxamide] | 34000 nM | 530 nM
5 | CN1CCC[C@H]1C(=O)N1C[C@H](S(=O)(=O)c2ccccc2Cl)C[C@H]1C(=O)NC1(C#N)CC1 [Example 81, (R)-4-(2-Chloro-benzenesulfonyl)-1-((S)-1-methyl-pyrrolidine-2-carbonyl)-pyrrolidine-2-carboxylic acid (1-cyano-cyclopropyl)-amide formiate] | 3.2 nM | 6030 nM
6 | N#CC1(NC(=O)[C@@H]2C[C@@H](S(=O)(=O)c3ccc(Cl)cc3Cl)CN2C(=O)C2CC2(F)F)CC1 (stereo partly drawn) [Example 170, (2S,4R)-4-(2,4-Dichloro-benzenesulfonyl)-1-(2,2-difluoro-cyclopropanecarbonyl)-pyrrolidine-2-carboxylic acid (1-cyano-cyclopropyl)-amide] | 1 nM | 18400 nM
7 | N#CC1(NC(=O)C2CC(S(=O)(=O)c3ccccc3C(F)(F)F)CN2c2cccc(C(F)(F)F)c2)CC1 (stereo not drawn) [Example 354, 4-(2-Trifluoromethyl-benzenesulfonyl)-1-(3-trifluoromethyl-phenyl)-pyrrolidine-2-carboxylic Acid (1-cyano-cyclopropyl)-amide] | 0.175 nM | ≥ 25000 nM

More lines, in order of falling IC50 (Cathepsin S), values ahead:

Row | IC50 (Cathepsin S) | IC50 (Cat L) | SMILES
8 | 24.5 nM | 46500 nM | N#CC1(NC(=O)[C@H]2C[C@H](S(=O)(=O)c3ccc(OCC(F)(F)F)cc3Cl)CN2C(=O)C2(C(F)(F)F)CC2)CC1 [Example 280, (2R,4S)-4-[2-Chloro-4-(2,2,2-trifluoro-ethoxy)-benzenesulfonyl]-1-(1-trifluoromethyl-cyclopropanecarbonyl)-pyrrolidine-2-carboxylic acid (1-cyano-cyclopropyl)-amide]
9 | 17.5 nM | ≥ 25000 nM | CC(=O)Nc1cccc(-n2nc(C)cc2N2C[C@H](S(=O)(=O)c3ccccc3C(F)(F)F)C[C@@H]2C(=O)NC2(C#N)CC2)c1 [Example 357, (2R,4R)-1-[2-(3-Acetylamino-phenyl)-5-methyl-2H-pyrazol-3-yl]-4-(2-trifluoromethyl-benzenesulfonyl)-pyrrolidine-2-carboxylic acid (1-cyano-cyclopropyl)-amide]
10 | 5.8 nM | 47700 nM | N#CC1(NC(=O)[C@@H]2C[C@@H](S(=O)(=O)c3ccccc3C(F)(F)F)CN2Cc2ccncc2)CC1 [Example 108, (2S,4R)-1-Pyridin-4-ylmethyl-4-(2-trifluoromethyl-benzenesulfonyl)-pyrrolidine-2-carboxylic Acid (1-cyano-cyclopropyl)-amide]
11 | 5.2 nM | 16500 nM | CC(C)(C)OC(=O)N1C[C@H](S(=O)(=O)c2ccc(Cl)cc2Cl)C[C@H]1C(=O)NC1(C#N)CC1 [Example 4, (2S,4R)-2-(1-Cyano-cyclopropylcarbamoyl)-4-(2,4-dichloro-benzenesulfonyl)-pyrrolidine-1-carboxylic acid-tert-butyl ester]
12 | 0.82 nM | 2590 nM | CC(C(=O)N1C[C@H](S(=O)(=O)c2ccccc2Cl)C[C@H]1C(=O)NC1(C#N)CC1)c1ccc(Cl)cc1 (stereo partly drawn) [Example 430, (2S,4R)-1-(2-(4-chlorophenyl)propanoyl)-4-(2-chlorophenylsulfonyl)-N-(1-cyanocyclopropyl)pyrrolidine-2-carboxamide]
13 | 0.525 nM | 550 nM | N#CC1(NC(=O)[C@@H]2C[C@@H](S(=O)(=O)c3ccccc3Cl)CN2C(=O)[C@H](O)c2ccc(Cl)cc2)CC1 [Example 411, (2S,4R)-4-(2-Chloro-benzenesulfonyl)-1-[(R)-2-(4-chloro-phenyl)-2-hydroxy-acetyl]-pyrrolidine-2-carboxylic acid (1-cyano-cyclopropyl)-amide]
14 | 0.505 nM | 6.5 nM | N#CC1(NC(=O)[C@@H]2C[C@@H](S(=O)(=O)c3ccccc3Cl)CN2C(=O)C2(c3ccc(I)cc3)CC2)CC1 [Example 459, (2S,4R)-4-(2-Chloro-benzenesulfonyl)-1-[1-(4-iodo-phenyl)-cyclopropanecarbonyl]-pyrrolidine-2-carboxylic acid (1-cyano-cyclopropyl)-amide]
15 | 0.3 nM | 3150 nM | N#CC1(NC(=O)[C@@H]2C[C@@H](S(=O)(=O)c3ccc(N4CCCCC4)cc3Cl)CN2C(=O)C2(C(F)(F)F)CC2)CC1 [Example 135, (2S,4R)-4-(2-Chloro-4-piperidin-1-yl-benzenesulfonyl)-1-(1-trifluoromethyl-cyclopropanecarbonyl)-pyrrolidine-2-carboxylic acid (1-cyano-cyclopropyl)-amide]
16 | 0.2 nM | 8060 nM | Cc1cc(N2C[C@H](S(=O)(=O)c3ccc(N4CCN(C)CC4)cc3C(F)(F)F)C[C@H]2C(=O)NC2(C#N)CC2)n(C2CCC2)n1 [Example 389, (2S,4R)-1-(2-Cyclobutyl-5-methyl-2H-pyrazol-3-yl)-4-[4-(4-methyl-piperazin-1-yl)-2-trifluoromethyl-benzenesulfonyl]-pyrrolidine-2-carboxylic acid (1-cyano-cyclopropyl)-amide]
17 | 0.09 nM | 590 nM | N#CC1(NC(=O)[C@@H]2C[C@@H](S(=O)(=O)c3ccc(OCC(F)(F)F)cc3Cl)CN2C(=O)C2(c3ccccc3)CC2)CC1 [Example 240, (2S,4R)-4-[2-Chloro-4-(2,2,2-trifluoro-ethoxy)-benzenesulfonyl]-1-(1-phenyl-cyclopropanecarbonyl)-pyrrolidine-2-carboxylic acid (1-cyano-cyclopropyl)-amide]
18 | 0.07 nM | 26.3 nM | CN1CCN(c2ccc(S(=O)(=O)[C@@H]3C[C@@H](C(=O)NC4(C#N)CC4)N(C(=O)C4(c5ccc(Cl)nc5)CC4)C3)c(Cl)c2)CC1 [Example 369, (2S,4R)-4-[2-Chloro-4-(4-methyl-piperazin-1-yl)-benzenesulfonyl]-1-[1-(6-chloro-pyridin-3-yl)-cyclopropanecarbonyl]-pyrrolidine-2-carboxylic acid (1-cyano-cyclopropyl)-amide; Compound with Formic Acid]
